# Data: ChEMBL document CHEMBL5390304, “Phenyl-quinoline-xxo-butyric Acid Inhibitors of Histone Lysine Demethylase for the Treatment of Cancer” (ACS Med Chem Lett, 2023)
# Tests used:
# [1] = target: T1, Lysine-specific demethylase 4A (Homo sapiens, UniProt O75164); assay: Inhibition of human recombinant KDM4A assessed as decarboxylation of [1-14C] alphaKG at pH 7.4 using H3K9me3 as substrates incubated for 1 hr
# T1 sequence (O75164 whole entry): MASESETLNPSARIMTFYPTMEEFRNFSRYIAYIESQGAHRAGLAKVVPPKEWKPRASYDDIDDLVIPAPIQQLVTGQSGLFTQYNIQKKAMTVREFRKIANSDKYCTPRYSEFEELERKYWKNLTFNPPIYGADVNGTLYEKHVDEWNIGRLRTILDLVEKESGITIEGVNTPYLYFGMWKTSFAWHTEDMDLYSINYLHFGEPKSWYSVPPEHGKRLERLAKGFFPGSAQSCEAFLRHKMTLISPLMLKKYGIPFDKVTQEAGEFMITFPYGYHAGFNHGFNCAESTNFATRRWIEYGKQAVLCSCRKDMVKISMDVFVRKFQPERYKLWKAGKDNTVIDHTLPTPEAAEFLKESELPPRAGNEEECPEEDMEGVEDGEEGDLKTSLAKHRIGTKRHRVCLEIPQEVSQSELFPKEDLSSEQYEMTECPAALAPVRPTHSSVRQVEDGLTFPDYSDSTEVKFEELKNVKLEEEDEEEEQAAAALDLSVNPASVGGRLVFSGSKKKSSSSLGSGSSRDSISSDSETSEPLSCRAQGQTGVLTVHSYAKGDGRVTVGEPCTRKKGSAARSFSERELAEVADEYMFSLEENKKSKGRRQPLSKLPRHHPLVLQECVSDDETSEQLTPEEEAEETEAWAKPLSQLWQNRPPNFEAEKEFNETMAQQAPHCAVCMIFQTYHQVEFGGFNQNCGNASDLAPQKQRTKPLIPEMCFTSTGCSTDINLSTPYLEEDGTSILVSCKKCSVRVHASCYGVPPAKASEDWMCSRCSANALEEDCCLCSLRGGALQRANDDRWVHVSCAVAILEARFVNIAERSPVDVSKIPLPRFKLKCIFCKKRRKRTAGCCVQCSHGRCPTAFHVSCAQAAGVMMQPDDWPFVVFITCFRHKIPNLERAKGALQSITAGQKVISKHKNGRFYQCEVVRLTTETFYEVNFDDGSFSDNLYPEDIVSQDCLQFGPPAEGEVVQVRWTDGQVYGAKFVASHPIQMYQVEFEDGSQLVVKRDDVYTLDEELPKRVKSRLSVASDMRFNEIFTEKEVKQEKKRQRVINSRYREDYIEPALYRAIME
# [2] = target: Lysine-specific demethylase 5B (Homo sapiens, UniProt Q9UGL1); assay: Inhibition of human recombinant KDM5B assessed as decarboxylation of [1-14C] alphaKG by measuring 14CO2 release using H3K4me3 as substrate incubated for 1 hr
# Lysine-specific demethylase 5B, sequence (Q9UGL1 whole entry): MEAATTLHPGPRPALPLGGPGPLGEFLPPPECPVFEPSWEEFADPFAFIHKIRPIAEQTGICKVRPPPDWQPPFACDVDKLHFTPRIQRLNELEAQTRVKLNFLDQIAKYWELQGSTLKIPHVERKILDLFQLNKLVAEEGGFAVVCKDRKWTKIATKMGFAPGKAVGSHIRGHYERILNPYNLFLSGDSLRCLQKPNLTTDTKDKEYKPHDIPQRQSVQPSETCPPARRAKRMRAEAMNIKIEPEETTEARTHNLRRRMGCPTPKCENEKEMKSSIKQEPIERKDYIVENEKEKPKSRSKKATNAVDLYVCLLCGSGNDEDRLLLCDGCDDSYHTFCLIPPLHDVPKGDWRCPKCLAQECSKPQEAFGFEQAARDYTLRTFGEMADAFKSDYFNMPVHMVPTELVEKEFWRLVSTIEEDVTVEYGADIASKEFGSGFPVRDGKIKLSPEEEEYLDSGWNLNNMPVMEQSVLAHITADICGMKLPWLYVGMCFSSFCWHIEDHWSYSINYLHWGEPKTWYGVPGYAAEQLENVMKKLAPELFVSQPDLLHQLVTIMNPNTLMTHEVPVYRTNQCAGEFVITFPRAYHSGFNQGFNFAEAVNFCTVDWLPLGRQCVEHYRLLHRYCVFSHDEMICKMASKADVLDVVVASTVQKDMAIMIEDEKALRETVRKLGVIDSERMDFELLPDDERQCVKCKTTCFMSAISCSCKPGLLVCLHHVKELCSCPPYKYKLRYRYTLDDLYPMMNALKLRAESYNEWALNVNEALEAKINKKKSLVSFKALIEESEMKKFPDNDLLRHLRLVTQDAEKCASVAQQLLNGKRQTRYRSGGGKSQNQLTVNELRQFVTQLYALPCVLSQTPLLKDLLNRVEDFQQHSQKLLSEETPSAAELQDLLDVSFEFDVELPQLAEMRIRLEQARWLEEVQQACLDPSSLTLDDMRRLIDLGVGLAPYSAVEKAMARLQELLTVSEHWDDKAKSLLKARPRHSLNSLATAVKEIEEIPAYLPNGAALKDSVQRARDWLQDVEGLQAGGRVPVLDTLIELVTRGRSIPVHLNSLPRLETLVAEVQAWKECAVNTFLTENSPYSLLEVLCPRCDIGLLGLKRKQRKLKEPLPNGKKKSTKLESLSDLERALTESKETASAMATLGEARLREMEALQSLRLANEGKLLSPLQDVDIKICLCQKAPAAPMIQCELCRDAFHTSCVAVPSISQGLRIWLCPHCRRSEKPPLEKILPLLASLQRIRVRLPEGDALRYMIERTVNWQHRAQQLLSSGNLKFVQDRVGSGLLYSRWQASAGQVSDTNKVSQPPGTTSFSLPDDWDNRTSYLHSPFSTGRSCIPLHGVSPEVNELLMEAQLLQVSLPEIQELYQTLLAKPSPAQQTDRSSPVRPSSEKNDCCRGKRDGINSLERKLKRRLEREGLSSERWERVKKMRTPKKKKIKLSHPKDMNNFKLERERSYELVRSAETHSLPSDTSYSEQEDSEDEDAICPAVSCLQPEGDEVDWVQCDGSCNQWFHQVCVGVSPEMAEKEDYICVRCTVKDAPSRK
SMILES,IC50 [1] [nM],IC50 [2] [nM]
N#Cc1c(O)c(C(=O)CCC(=O)O)nc2cc(Sc3ccccc3)ccc12,> 40000,150
O=C(O)CCC(=O)c1nc2cc(-c3ccccc3)ccc2cc1O,> 40000,> 40000
N#Cc1c(O)c(C(=O)CCC(=O)O)nc2ccc(Cc3ccccc3)cc12,> 40000,970
N#Cc1c(O)c(C(=O)CCC(=O)O)nc2cc(Cc3ccccc3)ccc12,> 40000,240
Cc1cc(C)cc(-c2ccc3c(C#N)c(O)c(C(=O)CCC(=O)O)nc3c2)c1,> 40000,370

# The next lines start with the values.
IC50 [1] [nM],IC50 [2] [nM],SMILES
> 40000,220,COc1ccc(-c2ccc3c(C#N)c(O)c(C(=O)CCC(=O)O)nc3c2)cc1
> 40000,310,N#Cc1c(O)c(C(=O)CCC(=O)O)nc2ccc(-c3ccccc3)cc12
3900,90,N#Cc1c(O)c(C(=O)CCC(=O)O)nc2cc(-c3ccccc3)ccc12
40000,130,N#Cc1c(O)c(C(=O)CCC(=O)O)nc2ccccc12
22000,230,Cc1cccc(-c2ccc3c(C#N)c(O)c(C(=O)CCC(=O)O)nc3c2)c1
7900,130,N#Cc1ccc(-c2cccc3c(C#N)c(O)c(C(=O)CCC(=O)O)nc23)cc1
